Experimental data taken from the Kinase Knowledgebase extract (Sharma et al. 2016).
pIC50: −log10 of the molar value.

Biological target: PIK3CD (Human) (UniProt O00329)
Experiment: Enzyme Assay

Sequence of PIK3CD (Human) (O00329 whole entry, looked up): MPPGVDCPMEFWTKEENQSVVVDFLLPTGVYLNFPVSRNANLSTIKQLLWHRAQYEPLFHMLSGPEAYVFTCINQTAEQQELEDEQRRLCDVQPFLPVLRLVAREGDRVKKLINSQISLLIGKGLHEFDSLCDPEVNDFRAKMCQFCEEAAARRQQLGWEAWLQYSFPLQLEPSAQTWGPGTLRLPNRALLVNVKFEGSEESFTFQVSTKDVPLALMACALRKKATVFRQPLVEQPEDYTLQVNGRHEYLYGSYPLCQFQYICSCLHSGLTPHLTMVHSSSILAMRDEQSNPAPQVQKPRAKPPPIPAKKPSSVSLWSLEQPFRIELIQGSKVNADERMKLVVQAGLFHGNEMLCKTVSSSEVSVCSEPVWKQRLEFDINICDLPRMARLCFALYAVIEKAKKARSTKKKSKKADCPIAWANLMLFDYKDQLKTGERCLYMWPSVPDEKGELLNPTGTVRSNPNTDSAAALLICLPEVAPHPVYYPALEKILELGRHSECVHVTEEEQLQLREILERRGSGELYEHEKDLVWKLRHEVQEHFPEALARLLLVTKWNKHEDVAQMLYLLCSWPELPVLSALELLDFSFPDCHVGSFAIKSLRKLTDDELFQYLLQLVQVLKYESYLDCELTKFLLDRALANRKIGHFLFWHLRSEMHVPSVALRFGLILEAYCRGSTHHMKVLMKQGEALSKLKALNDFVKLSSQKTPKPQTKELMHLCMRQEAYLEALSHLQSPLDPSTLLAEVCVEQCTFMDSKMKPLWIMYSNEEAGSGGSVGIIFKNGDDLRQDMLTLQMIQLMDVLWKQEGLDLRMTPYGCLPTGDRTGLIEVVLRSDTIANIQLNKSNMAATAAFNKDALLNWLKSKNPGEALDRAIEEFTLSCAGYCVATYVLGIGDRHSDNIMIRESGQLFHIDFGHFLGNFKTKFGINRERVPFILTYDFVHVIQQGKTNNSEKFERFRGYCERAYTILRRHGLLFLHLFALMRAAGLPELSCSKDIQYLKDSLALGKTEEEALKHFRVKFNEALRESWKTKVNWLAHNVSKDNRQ

Compound	pIC50
C[C@H](Nc1ncnc(N)c1C#N)c1nc2cccc(Cl)c2c(=O)n1-c1cc(F)cc(F)c1	8.00 to 9.00
CC[C@H](Nc1nc(N)nc(N)c1C#N)c1nc2c(Cl)cccc2c(=O)n1-c1cc(F)cc(F)c1	7.30 to 8.00
C[C@H](Nc1nc(N)nc(N)c1C#N)c1nc2cccc(F)c2c(=O)n1-c1cccc(C(F)(F)F)c1	8.00 to 9.00
C[C@H](Nc1nc(N)nc(N)c1C#N)c1nc2ccc(F)cc2c(=O)n1-c1cccc(Cl)c1	8.00 to 9.00
C[C@H](Nc1nc(N)nc(N)c1C#N)c1nc2cccc(O)c2c(=O)n1-c1ccccc1	≥ 9.00
C[C@H](Nc1nc(N)nc(N)c1C#N)c1nc2cccc(Cl)c2c(=O)n1-c1cc(Cl)cc(C(F)F)c1	8.00 to 9.00
C[C@H](Nc1nc(N)nc(N)c1C#N)c1nc2cccc(Cl)c2c(=O)n1-c1cc(F)cc(F)c1	≥ 9.00
C[C@H](Nc1nc(N)nc(N)c1C#N)c1nc2cccc(C#N)c2c(=O)n1-c1cc(F)cc(C(F)F)c1	7.30 to 8.00
C[C@H](Nc1nc(N)nc(N)c1C#N)c1nc2ccc(F)c(Cl)c2c(=O)n1-c1cc(F)cc(F)c1	8.00 to 9.00
C[C@H](Nc1nc(N)nc(N)c1C#N)c1nc2c(C#N)cc(F)cc2c(=O)n1-c1cccc(F)c1	8.00 to 9.00
C[C@H](Nc1nc(N)nc(N)c1C#N)c1nc2cccc(S(C)(=O)=O)c2c(=O)n1-c1ccccc1	8.00 to 9.00
C[C@H](Nc1nc(N)nc(N)c1C#N)c1nc2cccc(C#N)c2c(=O)n1-c1cc(F)cc(F)c1	8.00 to 9.00
C[C@H](Nc1nc(N)nc(N)c1C#N)c1nc2cccc(Cl)c2c(=O)n1-c1ccccc1	≥ 9.00
C[C@H](Nc1nc(N)nc(N)c1C#N)c1nc2ccc(F)cc2c(=O)n1-c1cc(F)cc(F)c1	8.00 to 9.00
C[C@H](Nc1nc(N)nc(N)c1C#N)c1nc2c(F)cccc2c(=O)n1-c1ccccc1	8.00 to 9.00
CC[C@H](Nc1nc(N)nc(N)c1C#N)c1nc2c(F)ccc(F)c2c(=O)n1-c1cccc(F)c1	8.00 to 9.00
C[C@H](Nc1nc(N)nc(N)c1C#N)c1nc2cccc(C#N)c2c(=O)n1-c1ccccc1	8.00 to 9.00
CC[C@H](Nc1nc(N)nc(N)c1C#N)c1nc2c(Cl)ccc(F)c2c(=O)n1-c1cc(F)cc(F)c1	7.30 to 8.00
C[C@H](Nc1nc(N)nc(N)c1C#N)c1nc2c(Cl)cccc2c(=O)n1-c1cc(F)cc(F)c1	8.00 to 9.00

Compound	pIC50
C[C@H](Nc1nc(N)nc(N)c1C#N)c1nc2cccc(F)c2c(=O)n1-c1cc(F)cc(F)c1	8.00 to 9.00
C[C@H](Nc1nc(N)nc(N)c1C#N)c1nc2c(F)ccc(F)c2c(=O)n1-c1cccc(F)c1	8.00 to 9.00
COc1cccc2nc([C@H](C)Nc3nc(N)nc(N)c3C#N)n(-c3ccccc3)c(=O)c12	7.30 to 8.00
C[C@H](Nc1nc(N)nc(N)c1Cl)c1nc2cccc(S(C)(=O)=O)c2c(=O)n1-c1cccc(F)c1	8.00 to 9.00
C[C@H](Nc1nc(N)nc(N)c1C#N)c1nc2cccc(C(F)F)c2c(=O)n1-c1cccc(C#N)c1	8.00 to 9.00
C[C@H](Nc1nc(N)nc(N)c1C#N)c1nc2c(C#N)cc(F)cc2c(=O)n1-c1cc(F)cc(F)c1	7.30 to 8.00
C[C@H](Nc1nc(N)nc(N)c1C#N)c1nc2ccc(F)c(F)c2c(=O)n1-c1cc(F)cc(F)c1	7.30 to 8.00
C[C@H](Nc1nc(N)nc(N)c1C#N)c1nc2ccc(F)cc2c(=O)n1-c1ccccc1	8.00 to 9.00
Cc1ccc(F)c2nc([C@H](C)Nc3nc(N)nc(N)c3C#N)n(-c3cccc(C#N)c3)c(=O)c12	≥ 9.00
C[C@H](Nc1nc(N)nc(N)c1C#N)c1nc2c(F)ccc(C#N)c2c(=O)n1-c1cc(F)cc(F)c1	7.30 to 8.00
C[C@H](Nc1nc(N)nc(N)c1C#N)c1nc2cccc(Cl)c2c(=O)n1-c1cccc(C(F)(F)F)c1	8.00 to 9.00
C[C@H](Nc1nc(N)nc(N)c1C#N)c1nc2cccc(Cl)c2c(=O)n1-c1cccc(Cl)c1	≥ 9.00
Cc1cccc2c(=O)n(-c3cc(F)cc(F)c3)c([C@H](C)Nc3nc(N)nc(N)c3C#N)nc12	8.00 to 9.00
Cc1ccc(Cl)c2c(=O)n(-c3cccc(Cl)c3)c([C@H](C)Nc3nc(N)nc(N)c3C#N)nc12	≥ 9.00
COc1cccc(-n2c([C@H](C)Nc3nc(N)nc(N)c3C#N)nc3cccc(Cl)c3c2=O)c1	≥ 9.00
COc1cc(-n2c([C@H](C)Nc3nc(N)nc(N)c3C#N)nc3cccc(Cl)c3c2=O)ccc1F	8.00 to 9.00
C[C@H](Nc1nc(N)nc(N)c1C#N)c1nc2cccc(C#N)c2c(=O)n1-c1cccc(F)c1	8.00 to 9.00
C[C@H](Nc1nc(N)nc(N)c1C#N)c1nc2cccc(Cl)c2c(=O)n1-c1cccc(C#N)c1	8.00 to 9.00
CC[C@H](Nc1nc(N)nc(N)c1C#N)c1nc2c(C)cccc2c(=O)n1-c1cc(F)cc(F)c1	7.30 to 8.00

Compound	pIC50
COC[C@@H](Nc1nc(N)nc(N)c1C#N)c1nc2cccc(Cl)c2c(=O)n1-c1cc(F)cc(F)c1	8.00 to 9.00
C[C@H](Nc1nc(N)nc(N)c1C#N)c1nc2c(F)ccc(F)c2c(=O)n1-c1cc(F)cc(F)c1	8.00 to 9.00
CC[C@H](Nc1nc(N)nc(N)c1C#N)c1nc2ccccc2c(=O)n1-c1cc(F)cc(F)c1	7.30 to 8.00
CC(C)C[C@H](Nc1nc(N)nc(N)c1C#N)c1nc2cccc(Cl)c2c(=O)n1-c1cccc(C#N)c1	7.30 to 8.00
C[C@H](Nc1nc(N)nc(N)c1C#N)c1nc2c(Cl)cc(F)cc2c(=O)n1-c1cc(F)cc(F)c1	8.00 to 9.00
C[C@H](Nc1nc(N)nc(N)c1C#N)c1nc2c(C#N)cccc2c(=O)n1-c1ccccc1	8.00 to 9.00
Cc1cccc2c(=O)n(-c3ccccc3)c([C@H](C)Nc3nc(N)nc(N)c3C#N)nc12	8.00 to 9.00
C[C@H](Nc1nc(N)nc(N)c1C#N)c1nc2cc(F)c(F)cc2c(=O)n1-c1cc(F)cc(F)c1	7.30 to 8.00
C[C@H](Nc1nc(N)nc(N)c1C#N)c1nc2cccc(Br)c2c(=O)n1-c1ccccc1	≥ 9.00
C[C@H](Nc1nc(N)nc(N)c1C#N)c1nc2cccc(F)c2c(=O)n1-c1cccc(CC(F)F)c1	8.00 to 9.00
CC[C@H](Nc1nc(N)nc(N)c1C#N)c1nc2c(F)ccc(F)c2c(=O)n1-c1cccc(C#N)c1	7.30 to 8.00
C[C@H](Nc1nc(N)nc(N)c1C#N)c1nc2c(Cl)ccc(Cl)c2c(=O)n1-c1cc(F)cc(F)c1	8.00 to 9.00
C[C@H](Nc1nc(N)nc(N)c1C#N)c1nc2cccc(Cl)c2c(=O)n1-c1cc(Cl)cc(Cl)c1	8.00 to 9.00
C[C@H](Nc1nc(N)nc(N)c1C#N)c1nc2cccc(S(C)(=O)=O)c2c(=O)n1-c1cccc(C(F)F)c1	8.00 to 9.00
CC[C@H](Nc1nc(N)nc(N)c1C#N)c1nc2c(F)ccc(F)c2c(=O)n1-c1cc(F)cc(F)c1	7.30 to 8.00
CC[C@H](Nc1nc(N)nc(N)c1C#N)c1nc2cccc(Cl)c2c(=O)n1-c1cc(F)cc(F)c1	8.00 to 9.00
COc1cc(C(F)F)cc(-n2c([C@H](C)Nc3nc(N)nc(N)c3C#N)nc3cccc(Cl)c3c2=O)c1	8.00 to 9.00
CC[C@H](Nc1nc(N)nc(N)c1C#N)c1nc2ccc(F)cc2c(=O)n1-c1cc(F)cc(F)c1	7.30 to 8.00
